Data published in patent US9243227B2, “Cytotoxic T lymphocyte” (Mie University, priority 2004, dated 2016).

Columns and labels:
[1] = tested on: human bulk CTLs sensitized with mRNA-introduced autologous CD4+ PHA blast cells; test: IFN-γ ELISPOT assay (human) with peptide-pulsed T2A24 cells; type: cell-based
Description: On the 0th day, PHA (trade name: HA15, manufactured by Murex S.A.) was added to the medium in each well of the plate at a final concentration of 10 μg/milliliter. On the 3rd day, half amount of the medium was exchanged with the above medium containing IL-2 (20 U/milliliter) and IL-7 (40 ng/milliliter). Exchange of the medium was repeated every 3 days, whereby activated CD4-positive cells were obtained. The mRNA was introduced by electroporation into the activated CD4-positive cells at 14 to 28 days after culture was initiated. The resulting cells were used below as antigen-presenting cells.
MACS CD8 Microbeads (trade name, manufactured by Miltenyi Biotec) were used, to separate CD8+ T cells from PBMC. The number 5×10^5 cells of CD8+ T cells thus obtained were stimulated with radiation (30 Gy)-irradiated 1×10^5 mRNA-introduced CD4+ PHA blast cells in a 96-well round plate (manufactured by Nunc Corporation). After 7 days, the CD8+ T cells were stimulated again with radiation (30 Gy)-irradiated 1×10^5 mRNA-introduced CD4+ PHA blast cells, and then cultured in an IL-2 (20 IU/milliliter)-containing RPMI1640 medium for 7 days.
To amplify the sensitized CD8+ T cell group containing the antigen-specific CTLs, autologous LCLs (5×10^6 cells) into which the target antigen mRNA was introduced, autologous PBMCs (2.5×10^7 cells), and IL-2 (20 IU/milliliter) were added to the sensitized CD8+ T cell group. The resulting mixture was cultured in the absence of anti-CD3 antibody in a 25-milliliter flask (manufactured by Corning Incorporated).
A 96-well nitrocellulose ELISPOT plate (trade name: MAHA 54510, manufactured by Millipore Corporation) was coated by overnight incubation at 4° C. with 2 μg/milliliter antihuman IFN-γ mAb (trade name: 1-D1K). Each well was washed with PBS, and then blocked by incubation at 37° C. for 2 hours with RPMI1640 medium containing 10 wt % human AB serum. Effector cells (2×10^4 cells/well) and peptide-pulsed T2A24 cells (5×10^4 cells/well) were seeded to each well. […] Then, the plate was dried and spots were counted.

[2] = tested on: CD8-positive cells derived from immunized HHDA2402+/−β2m−/− mice; test: IFN-gamma ELISPOT assay (mice), gene gun-immunized HLA-A2402 transgenic mice; type: cell-based, mouse; settings: HHDA2402 mice immunized twice by gene gun with plasmid of the parent antigen; CD8-negative cells pulsed with peptide as target cells; FIG. 1A-1C
Description: A DNA construct (HHDA2402) containing an HLA-A2402 leader sequence, human β2 microglobulin, HLA-A2402 α1 and α2 domains, an H-2D^b α3 transmembrane domain, and a cytoplasm domain was constructed. The resulting construct was cloned into an expression vector pcDNA 3.1 (manufactured by Invitrogen Corporation). The HHDA2402 construct (4 kb SalI-NotI fragment) was injected into fertilized eggs of C57BL/6 mice, to give HHDA2402-expressing mice. Then, the […] mice were bred with β2m−/− mice (manufactured by The Jackson Laboratory). The resulting HHDA2402+/−β2 m+/− were bred with β2m−/− mice to give HHDA2402+/−β2m−/− mice (referred to hereinafter as “HHDA2402 mice”).
Using Helios Gene Gun System (trade name, manufactured by Bio-Rad Laboratories, Inc.), gold particles coated with plasmid DNA were administered endoabdominally at a helium pressure of from 350 to 400 psi into HHDA2402 mice (6-to 8-week-old, female). The gold particles were prepared according to a manufacturer's manual. After 2 weeks, booster administration was carried out. After 1 week, spleen cells were collected.
One week after the final immunization, MACS system (trade name, manufactured by Mitlenyi Biotec) using CD8 alpha (Lyt 2) microbeads was used, to select CD8-positive T cells. The purity of the resulting T cell fraction analyzed by flow cytometry was 95% or more.
(§1) A 96-well nitrocellulose ELISPOT plate (trade name: MAHA 54510, manufactured by Millipore Corporation) was incubated overnight with 2 μg/milliliter anti-mouse IFN-gamma mAb (trade name: clone R4-6A2, manufactured by PharMingen Company) at 4° C., to coat the plate. Each well was washed with phosphate buffered physiologic saline (PBS). The well after washing was blocked by incubation at 37° C. for 2 hours in FCS-containing RPMI1640 medium.
Fresh CD8-positive cells (1×10^5 cells/well) derived from the immunized mice and CD8-negative cells (1×10^6 cells/well) pulsed with various peptides were seeded to each well and regulated so as to have a final volume of 200 μl. Then, the cells were cultured at 37° C. for 22 hours. Thereafter, the cells were washed sufficiently with PBS containing 0.05 wt % Tween™ 20 (referred to as “PBS-Tween”). Two hundreds microliters of 1.25 μg/milliliter biotinylated anti-mouse IFN-gamma mAb (trade name, manufactured by PharMingen Company) was added to the cells after washing, and the cells were then cultured overnight at 4° C. The cells thus obtained were washed with PBS-Tween. One hundred microliters of 1 μg/milliliter streptavidin-alkaline phosphatase conjugate (trade name, manufactured by Mabtech Ltd.) was added to the cells after washing. Thereafter, the resulting mixture was incubated at room temperature for 90 minutes, to carry out reaction. The resulting product was washed with PBS-Tween and then stained with an alkaline phosphatase conjugate substrate kit (trade name, manufactured by Bio-Rad Laboratories, Inc.). Thereafter, the product after staining was washed with distilled water to terminate the reaction. Then, the plate was dried and spots were counted.
HHDA2402 mice were immunized with an expression plasmid carrying EB virus-derived EBNA 3A gene by a gene gun. After immunized twice, spleen-derived CD8+ T cells were prepared. CD8-negative cells pulsed with the EBNA 3A246-254 peptide were used as target cells, to carry out ELISPOT assay. […]

[3] = tested on: CD8+ cells from HLA-A2402-positive healthy normal volunteers; test: In vitro induction of human CTLs using CD8− PBMC pulsed with a peptide; type: cell-based; settings: one stimulation with CD8-negative PBMC pulsed with 10 μM peptide; 10 days after mixed lymphocyte reaction in vitro
Description: The number 1×10^7 of CD8-negative PBMC were pulsed with 10 μM peptide by incubation at room temperature for 1 hour and at 37° C. in 5% CO2 for 1 hour, in 200 μl RPMI1640 medium containing 25 mM Hepes, 10 wt % inactivated human AB-positive serum, 2 mM L-glutamine, 100 U/milliliter penicillin, and 100 μg/milliliter streptomycin. The resulting cells were used as antigen-presenting cells. The number 5×10^5 of CD8+ T cells that were separated were then stimulated by incubation for from 10 to 12 days with 1×10^6 cells of the peptide-pulsed CD8− PBMC. On Days 1, 4 and 7, half amount of the medium was exchanged with fresh one, and human IL-2 (20 IU/milliliter) and IL-7 (50 ng/milliliter) were added thereto. Culturing for induction was conducted in 200 μl RPMI1640 medium (containing 25 mM Hepes, 10 wt % inactivated human AB serum, 2 mM L-glutamine, 100 U/milliliter penicillin, 100 μg/milliliter streptomycin). […]
In staining, sensitized CD8+ T cells were reacted with 20 μg/milliliter tetramer at 37° C. for 30 minutes, and then reacted with a tricolor anti-CD8 monoclonal antibody (trade name, Caltag Laboratories, Burlingame, Calif., USA) on ice for 15 minutes. After washing, the stained cells were analyzed by flow cytometry (trade name: FACSCalibur, manufactured by Becton Dickinson, and Company). […]

[4] = tested on: CD8-positive cells of wild-type C57BL6 mice; test: IFN-gamma ELISPOT assay, same experiment in wild-type mice; type: cell-based, mouse; settings: same experiment as in HHDA2402 mice
Description: as §1
Fresh CD8-positive cells (1×10^5 cells/well) derived from the immunized mice and CD8-negative cells (1×10^6 cells/well) pulsed with various peptides were seeded to each well and regulated so as to have a final volume of 200 μl. Then, the cells were cultured at 37° C. for 22 hours. Thereafter, the cells were washed sufficiently with PBS containing 0.05 wt % Tween™ 20 (referred to as “PBS-Tween”). Two hundreds microliters of 1.25 μg/milliliter biotinylated anti-mouse IFN-gamma mAb (trade name, manufactured by PharMingen Company) was added to the cells after washing, and the cells were then cultured overnight at 4° C. The cells thus obtained were washed with PBS-Tween. One hundred microliters of 1 μg/milliliter streptavidin-alkaline phosphatase conjugate (trade name, manufactured by Mabtech Ltd.) was added to the cells after washing. […] Then, the plate was dried and spots were counted. […]

LYATVIHDI (listed as Homo sapiens) [SAGE715-723]
IFN-γ release in ELISPOT with peptide-pulsed T2A24 as target cell ([1]; T2A24 pulsed with SAGE715-723, control HER263-71, FIG. 4C): IFN-γ was released
induction of peptide-specific bulk CTLs, IFN-γ ELISPOT ([1]; stimulation twice with CD4+ blast cells with truncated SAGE mRNA, T2A24 pulsed with peptide vs control peptide, FIG. 4A): specific bulk CTLs were inducted
peptide-specific CTL response in ELISPOT assay (immunogenicity of peptide) [2]: positive
HLA-A2402+ healthy normal humans in whom SAGE715-723 HLA-A24 tetramer-positive T cells were detected [3]: three out of six

NYKRCFPVI (listed as Homo sapiens) [MAGE-A4143-151]
IFN-γ ELISPOT reaction to T2A24 cells pulsed with peptide ([1]; MAGE-A4-specific bulk CTLs amplified with mRNA-introduced autologous LCL, autologous PBMC and IL-2, FIG. 2 panel B): reaction specific
peptide-specific CTL response in ELISPOT assay (immunogenicity of peptide) [2]: positive

VYGEPRKLL (listed as Homo sapiens) [MAGE-A4239-247]
peptide-specific CTL response in ELISPOT assay [4]: positive
peptide-specific CTL response in ELISPOT assay (immunogenicity of peptide) [2]: positive

RYSIFFDYM (Epstein-Barr virus) [EBNA3A246-254, reference compound]
peptide-specific CTL response in ELISPOT assay (immunogenicity of peptide) [2]: peptide-specific CTLs were detected

LYKPDSNEF (listed as Homo sapiens) [SAGE776-784]
peptide-specific CTL response in ELISPOT assay [4]: positive
peptide-specific CTL response in ELISPOT assay (immunogenicity of peptide) [2]: positive
